Experimental data: patent publication US12662403B2, “Photoswitchable guanidinium compounds for removal of oxyanions from liquid solutions” (UT-Battelle, LLC, priority 2021, dated 2026)

How the values were obtained:
[1] = Photoswitching in the absence or presence of sulfate (1H NMR, DMSO-d6); type: physicochemical
Experimental: Photoswitching in the presence of sulfate was performed in one of two methods. In the first method, 0.5 mol ratio (sulfate to 2PyDIG^+) tetramethylammonium sulfate was added to a freshly prepared 10 mM E,E-2PyDIG·HOTf in DMSO-d6 solution in a quartz cuvette. After the addition of sulfate, the solution was irradiated with a UV (Hg lamp) light for 2 hours while stirring. The solution was then heated statically for 36 hours, at which point the solution was left to cool at room temperature for approximately 30 minutes, and a ^1H NMR spectrum was collected. In the second method, a freshly prepared 10 mM E,E-2PyDIG·HOTf in DMSO-d6 solution was irradiated with UV (Hg lamp) light for 2 hours while stirring. Following this, tetramethylammonium sulfate was added in either 0.5 or 1.0 mol ratio (sulfate to 2PyDIG^+). The solution was then heated statically for 36 hours, at which point the solution was left to cool at room temperature for approximately 30 minutes, and a ^1H NMR spectrum was collected. ^1H NMR spectra were collected on 500 μL aliquots of the freshly prepared samples, samples after photoirradiation, and samples after thermal treatment at 50° C. for 36 hours.

[2] = Sulfate binding constants, average of the UV-vis and NMR titrations, and E,E − Z,Z comparison
Experimental: For absorption titration experiments, a freshly prepared stock solution of 1.5 mM E,E-2PyDIG·HOTf in DMSO-d6 was added to a 1 mm quartz cuvette, and a tetramethylammonium sulfate solution (3.6 mM in DMSO-d6) was added, and the solution was mixed. Absorption spectra were collected after each addition using a UV-Visible spectrophotometer at ca. 24° C. For the Z,Z photoisomer, a freshly prepared 1.5 mM 2PyDIG·HOTf sample was irradiated for 1 hour before titration experiments were prepared and carried out in the same manner as for the E,E isomer.
The binding constants from the three UV-Vis titrations were calculated using commercial software based on the changes in the 2PyDIG^+ absorption maximum value at 315 nm and 320 nm for the E,E and Z,Z photoisomers, respectively. Fitting was performed by assigning the 1:0 and 1:2 PyDIG:sulfate adducts as spectra from before addition of sulfate and after 3 molar equivalents of sulfate, respectively.
For ^1H NMR titrations, a freshly prepared stock solution of 1.5 mM 2PyDIG·HOTf in DMSO-d6 was added to twelve NMR tubes, and a tetramethylammonium sulfate solution (10 mM in DMSO-d6) was added in varying stoichiometric amounts. Clean DMSO-d6 was then added to achieve a final volume of 500 μL. Titrations were performed with both a micropipette and a micrometer syringe. For the Z,Z photoisomer, a freshly prepared 1.5 mM 2PyDIG·HOTf sample was irradiated for 1 hour before the six titration experiments were prepared and carried out in the same manner as for the E,E isomer. To ensure that the PyDIG concentration was not changing as a result of precipitation, dimethylsulfone was added as an internal standard to the 1:2 PyDIG:SO4 solution. It was determined that the concentration of PyDIG remained constant throughout the experiment.
The binding constants from the four ^1H NMR titrations were calculated using commercial software based on the changes in the guanidinium —N—H chemical shifts of the 2PyDIG protons. During fitting, only the monoprotonated 2PyDIG cation was considered, as the Bjerrum pair of 2PyDIG cation and triflate in DMSO was estimated to have a Kassociation value of 156 M−^1. Fitting was performed by locking the 1:0 and 1:2 PyDIG:sulfate adducts at known chemical shift values to reduce the number of adjustable parameters to refine. The corresponding speciation and residual plots for each trial made. Attempts to increase the experimental concentration of 2PyDIG·HOTf higher than 1 mM produced solids, which prevented NMR titrations at higher concentrations.

[3] = Photoirradiation, thermal relaxation and cycling monitored by 1H NMR in DMSO-d6; type: physicochemical; details: for time to reach thermal equilibrium: 10 mM, photoirradiated
Experimental: In a typical photoirradiation NMR experiment, 3 mL of a freshly made deuterated DMSO solution was placed in a quartz cuvette (1 cm×1 cm×4.5 cm), stirred, and irradiated with UV-visible light using an unfiltered super high-pressure mercury lamp with emissions in the long-wave UV region and in the visible region at the yellow, green, blue, and violet wavelengths (254-800 nm). From the irradiated solution, 500 μL aliquots were removed with a micropipette and transferred to NMR tubes. For studies including excess triflate, a stock solution (200 mM) of tetramethylammonium triflate in DMSO-d6 was added before irradiation to obtain the desired concentration. Experiments were carried out in the same fashion as above. All measurements were obtained on the irradiated solutions within 1 hour of irradiation. ^1H spectra were recorded on a Bruker AvanceIII-400 MHz NMR spectrometer equipped with a 5 mm PABBO probe. The residual solvent signal ((CD3)2SO δH=2.50 ppm) was considered as an internal reference to calibrate spectra and the temperature was held at 24° C. The chemical shifts used to monitor photoisomerization were the set of doublets at 8.67 and 8.80 ppm and triplets at 7.54 and 7.68 ppm for the E,E and Z,Z isomers, respectively. […] The sample underwent hydrolysis back to the aldehyde only under forcing conditions of heating the sample at 50° C. for 2 weeks in water, where the aldehyde proton at 9.86 ppm started to resolve.
Cycling studies were performed by irradiating a freshly prepared, 9.94 mM 2PyDIG·HOTf DMSO-d6 solution in an NMR tube at 24° C. After 6 hour, a ^1H NMR spectrum was collected to determine the photoisomerization value, and the sealed NMR tube was placed in a 50° C. oven. The sample was heated statically for 24 hour, at which point the solution was left to cool at room temperature for approximately 30 min, and a ^1H NMR spectrum was collected to determine the thermal relaxation value. This cycling process was repeated three more times.

[4] = Control, no SO4 added, mol ratio 0
[5] = SO4 added after irradiation, mol ratio 0.5
[6] = SO4 added after irradiation, mol ratio 1.0

For `N=C(N/N=C/c1ccccn1)N/N=C/c1ccccn1.O=S(=O)(O)C(F)(F)F` [E,E-2PyDIG, bis(2-((E)-pyridin-2-ylmethylene)hydrazineyl)methaniminium trifluoromethanesulfonate], the “Relative Amount of E,E-2PyDIG+, before irradiation” value [1, 4] was 97.4 ± 0.6%, the “Relative Amount of E,E-2PyDIG+, thermal equilibrium” value [1, 4] was 70.5 ± 0.9% and the “Relative Amount of E,E-2PyDIG+, after irradiation” value ([1]; Control, no SO4 added, mol ratio 0, PSS) was 32.3 ± 4.4%. The “Relative Amount of E,E-2PyDIG+, after irradiation” value [1, 5] was 33.2 ± 5.3%, the “Relative Amount of E,E-2PyDIG+, before irradiation” value [1, 5] was 95.1 ± 1.4% and the “Relative Amount of E,E-2PyDIG+, thermal equilibrium” value [1, 5] was 93.1 ± 3.3%. For the same compound, the “Relative Amount of E,E-2PyDIG+, after irradiation” value [1, 6] was 31.0 ± 4.7%, the “Relative Amount of E,E-2PyDIG+, before irradiation” value [1, 6] was 93.4 ± 2.9% and the “Relative Amount of E,E-2PyDIG+, thermal equilibrium” value [1, 6] was 91.6 ± 1.9%. For the same compound, the “Relative Amount of E,E-2PyDIG+, before irradiation” value ([1]; SO4 added before irradiation, mol ratio 0.5) was 91.1 ± 1.2%, the “Relative Amount of E,E-2PyDIG+, thermal equilibrium” value ([1]; SO4 added before irradiation, mol ratio 0.5, 50° C., 36 hours) was 91.2 ± 1.4 ^ % and the “Relative Amount of E,E-2PyDIG+, thermal equilibrium” value ([1]; SO4 added before irradiation, mol ratio 0.5, 50° C., 36 hours, listed as 2PyDIG·HOTf) was 91.2±1.4%. For the same compound, the “Relative Amount of E,E-2PyDIG+, after irradiation” value ([1]; SO4 added before irradiation, mol ratio 0.5, 2 hours UV) was 32.5 ± 3.8 ^ %, the “Relative Amount of E,E-2PyDIG+, after irradiation” value ([1]; SO4 added before irradiation, mol ratio 0.5, 2 hours UV, listed as 2PyDIG·HOTf) was 32.5±3.8% and the “Relative Amount of E,E-2PyDIG+, before irradiation” value ([1]; SO4 added before irradiation, mol ratio 0.5, listed as 2PyDIG·HOTf) was 92.8±1.4%. For the same compound, the “E,E isomer before sulfate addition, before irradiation” value ([1]; ca. 10 mM 2PyDIG·HOTf in DMSO-d6, before addition of 0.5 mol ratio sulfate) was 93.1±1.2%, the “log b11, E,E − Z,Z Difference” value ([2]; Eq. 2, difference of log binding constants of the isomers) was 5.40±0.45 and the “log b21, E,E − Z,Z Difference” value ([2]; Eq. 3, difference of log binding constants of the isomers) was 8.31 ± 0.56. The “log b21, E,E Avg Value” ([2]; Eq. 3, precision-weighted average of UV-vis and NMR titrations, DMSO-d6, 24° C.) was 11.39±0.55, the “log b12, E,E − Z,Z Difference” value ([2]; Eq. 4, difference of log binding constants of the isomers) was 7.91 ± 0.76 and the “log b12 of the 1:2 adduct” value ([2]; as printed in text with unit, average value of Table 2) was 11.91±0.74 M^−1. The “log K12, addition of the second sulfate to the 1:1 adduct” value ([2]; stepwise constant, DMSO-d6) was 4.7±1.5, the “time required to reach thermal equilibrium” value ([3]; 1 mM solution, even at elevated temperatures) was “greater than 20 days” and the “photoconversion to the Z,Z isomer” value ([3]; 1.5 mM (low concentration), UV irradiation, DMSO-d6, 24° C.) was 95.6±0.4%. For the same compound, the “time to reach photoconversion to the Z,Z isomer” value ([3]; 1.5 mM, UV irradiation) was “less than 15 min”, the “Z,Z isomer initially present” value ([3]; 1.5 mM, before UV irradiation, DMSO-d6) was 5.5±0.5% and the “percent Z,Z isomer in cycling, after irradiation” value ([3]; 10 mM in DMSO, 6-hour irradiation) was 69%. For the same compound, the “percent Z,Z isomer in cycling, after dark equilibration” value ([3]; 10 mM in DMSO, 24-hour dark equilibration) was 25%, the “Z,Z isomer at PSS” value ([3]; 10 mM solution, UV irradiation) was 67.7±4.4% and the “time to reach PSS” value ([3]; 10 mM solution, UV irradiation) was “more than 2 hours”. For the same compound, the “time to reach thermal equilibrium” value ([3]; 24° C.) was 4 days, the “time to reach thermal equilibrium” value ([3]; 50° C.) was “less than 24 h” and the “experimental free energy difference between E,E and Z,Z forms (Eq. 1)” value ([3]; in the presence of triflate) was 0.5 kcal/mol. For the same compound, the “equilibrium constant of thermal relaxation back to E,E from Z,Z (Eq. 1)” value ([3]; independent of temperature) was 2.38(8), the “E,E isomer at common thermal equilibrium” value ([3]; photoirradiated and nonirradiated solutions, thermal relaxation) was 70.5±0.9% and the “time to thermally equilibrate, unirradiated E,E isomer” value ([3]; unirradiated, 24° C.) was 14 days.
